Assay results from ChEMBL document CHEMBL1201862, “PubChem BioAssay data set” (2004).
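96-well plates; 48 h exposure; 5 concentrations. Endpoints by linear interpolation between flanking doses. Not reached: highest tested concentration assigned. GI50: concentration for 50% inhibition of growth.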 Calls of active or inactive are those of the source. Rule as the data show it: active = GI50 up to about 1.1 µM and inactive = higher.

Assays:
Assay in all cases: NCI tumour cell line growth inhibition, 48 h
[1] = system: TK-10
[2] = system: NCI-H522
[3] = system: OVCAR-8
[4] = system: RPMI-8226
[5] = system: U-251
[6] = system: SF-539
[7] = system: HL-60
[8] = system: HCT-116
[9] = system: HT-29
[10] = system: ACHN
[11] = system: SW-620
[12] = system: M14
[13] = system: MOLT-4
[14] = system: Malme-3M
[15] = system: UO-31
[16] = system: SNB-75
[17] = system: OVCAR-5
[18] = system: OVCAR-4
[19] = system: SK-MEL-2

Measured: GI50

C=C1CCC2(C(C)=O)COC1(C)O2 (centres undefined)
inactive: [1] > 100 µM | [2] > 10 µM | [3] > 100 µM | [4] > 100 µM | [5] > 100 µM | [6] > 100 µM | [7] > 100 µM | [8] > 100 µM | [9] > 100 µM | [10] > 100 µM | [11] > 100 µM | [12] > 100 µM | [13] > 100 µM | [14] > 100 µM | [15] > 100 µM | [16] > 100 µM

CCOC(=O)NC(=O)c1cn(-c2ccc(CCOC(=O)CCCCCCCCC(=O)OCCc3ccc(-n4cc(C(=O)NC(=O)OCC)c(=O)[nH]c4=O)cc3)cc2)c(=O)[nH]c1=O
inactive: [1] 42.8 µM | [3] > 100 µM | [4] > 100 µM | [17] > 100 µM | [5] 49.9 µM | [6] > 100 µM | [7] > 100 µM | [8] > 100 µM | [9] > 100 µM | [10] > 100 µM | [11] > 100 µM | [18] > 100 µM | [12] > 100 µM | [19] > 100 µM | [13] > 100 µM | [14] > 100 µM | [15] > 100 µM

O=c1ncccn1C1C=C(CO)C(O)C1O (centres undefined)
inactive: [1] > 50 µM | [2] > 50 µM | [4] > 50 µM | [17] > 50 µM | [5] > 50 µM | [6] > 50 µM | [7] > 50 µM | [9] > 50 µM | [10] > 50 µM | [11] > 50 µM | [18] > 50 µM | [12] > 50 µM | [19] > 50 µM | [13] > 50 µM | [14] > 50 µM | [15] > 50 µM

O=C(c1nc2ccccc2nc1O)C(O)c1ccccc1 (centres undefined)
inactive: [1] > 100 µM | [2] 22.2 µM | [3] > 100 µM | [4] 53.5 µM | [17] > 100 µM | [5] 43.7 µM | [6] 44.1 µM | [7] 61.7 µM | [8] > 100 µM | [9] > 100 µM | [10] 44.6 µM | [11] 86.9 µM | [18] 95.3 µM | [12] > 100 µM | [19] > 100 µM | [13] 64.9 µM | [14] > 100 µM | [15] 94.8 µM

CC(C)CN1CC(C)C(=O)NC1=O (centres undefined)
inactive: [1] > 100 µM | [2] > 100 µM | [3] > 100 µM | [17] > 100 µM | [5] > 100 µM | [6] > 100 µM | [7] > 100 µM | [9] > 100 µM | [10] > 100 µM | [11] > 100 µM | [18] > 100 µM | [19] > 100 µM | [13] > 100 µM | [14] > 100 µM | [15] > 100 µM

COc1c(CC(C)=O)c2ccccc2n1C(C)=O
inactive: [3] > 100 µM | [4] > 100 µM | [5] > 100 µM | [6] > 100 µM | [7] > 100 µM | [8] > 100 µM | [9] > 100 µM | [10] > 100 µM | [11] > 100 µM | [18] > 100 µM | [12] > 100 µM | [19] > 100 µM | [13] > 100 µM | [15] > 100 µM | [16] > 100 µM

O=S(O)CCCCCSSCCCCSSCCCCCS(=O)O
inactive: [1] > 100 µM | [2] 64.9 µM | [3] > 100 µM | [4] 97.5 µM | [17] > 100 µM | [5] > 100 µM | [6] > 100 µM | [9] > 100 µM | [10] > 100 µM | [11] > 100 µM | [18] > 100 µM | [12] > 100 µM | [19] > 100 µM | [13] 33.8 µM | [14] 27.7 µM | [15] 85.3 µM | [16] 30.8 µM
